Data set [1] has as its target SARS-CoV-1 spike heptad repeat 1 peptide, biotinylated (SARS-CoV-1). Briefly: BLI.
The test system of the next data set is SARS-CoV-2. The note with it: 1 h.
The next data set concerns the target SARS-CoV-1 HR1 (Severe acute respiratory syndrome coronavirus, UniProt P59594). Briefly: biochemical. The class given is binding.
For the next data set, the target named is SARS-CoV-2 HR1 (Severe acute respiratory syndrome coronavirus 2, UniProt P0DTC2). As to the kind of experiment: biochemical. The format is binding.
Data set [2] deals with SARS-CoV-2 (nCoV/USA_WA1/2020).

A word on the Kd: it is the equilibrium constant for the complex coming apart.

Non-standard residues stand in square brackets, D forms with d. Residues, ends and D or L forms follow the SMILES beside them.

The compound “SARS-CoV-2 spike heptad repeat 2 peptide” gave a Kd in data set [1] of 59.5 µM.
On to `CC[C@H](C)[C@H](NC(=O)[C@@H](NC(=O)[C@@H](N)CO)[C@@H](C)CC)C(=O)N[C@@H](CC(N)=O)C(=O)N[C@@H](Cc1ccccc1)C(=O)N[C@@H](CCC(=O)O)C(=O)N[C@@H](CCCCN)C(=O)N[C@@H](CC(C)C)C(=O)O` [OVA, reference compound], for which the “HEK293T TD50” value in the data set with HEK293T cells was greater than 50 µM. In addition, in the data set on Vero A2T2 cell line, the “Vero TD50 24 h” value was greater than 400 µM. The “Vero TD50 48 h” value in the data set with Vero hACE2 cells is given as greater than 50 µM.
In the case of `CC[C@H](C)[C@H](NC(=O)[C@H](CCCCN)NC(=O)[C@H](CCC(=O)O)NC(=O)[C@H](CCCCN)NC(=O)[C@H](CO)NC(=O)[C@H](CCCCN)NC(=O)[C@H](CCCNC(=N)N)NC(=O)[C@H](Cc1ccccc1)NC(=O)[C@H](Cc1ccccc1)NC(=O)[C@H](CC(=O)O)NC(=O)CNC(=O)[C@H](CC(C)C)NC(=O)[C@@H](N)CC(C)C)C(=O)NCC(=O)N[C@@H](CCCCN)C(=O)N[C@@H](CCC(=O)O)C(=O)N[C@@H](Cc1ccccc1)C(=O)N[C@@H](CCCCN)C(=O)N[C@@H](CCCNC(=N)N)C(=O)N[C@H](C(=O)N[C@H](C(=O)N[C@@H](CCC(N)=O)C(=O)N[C@@H](CCCNC(=N)N)C(=O)N[C@H](C(=O)N[C@@H](CCCCN)C(=O)N[C@@H](CC(=O)O)C(=O)N[C@@H](Cc1ccccc1)C(=O)N[C@@H](CC(C)C)C(=O)N[C@@H](CCCNC(=N)N)C(=O)N[C@@H](CC(N)=O)C(=O)N[C@@H](CC(C)C)C(=O)N[C@H](C(=O)N1CCC[C@H]1C(=O)N[C@@H](CCCNC(=N)N)C(=O)N[C@H](C(=O)N[C@@H](CCC(=O)O)C(=O)N[C@@H](CO)C(=O)O)[C@@H](C)O)C(C)C)[C@@H](C)CC)C(C)C)[C@@H](C)CC` [LL-37, reference compound], the “HEK293T TD50” value in the data set on HEK293T cells worked out at 26.61 µM. The “SARS-CoV-2 inhibition at 50 µM” value with SARS-CoV-2 is on record as greater than 50%. The “hemolytic activity (in words)” value with human red blood cells is “considerable hemolytic activity”. In addition, the “Vero TD50 48 h” value in the data set on Vero hACE2 cells turned out to be 39.44 µM.
With `CC[C@@H](C)[C@@H](NC(=O)[C@H]1CCCN1C(=O)[C@H]1CCCN1C(=O)[C@H](NC(=O)[C@@H](Cc1c[nH]c2ccccc12)NC(=O)[C@@H](CCCCN)NC(=O)[C@@H](CC(C)C)NC(=O)[C@H](NC(=O)[C@@H](CCCCN)NC(=O)CNC(=O)[C@H](NC(=O)[C@@H](CCCCN)NC(=O)[C@@H](CCCCN)NC(=O)[C@@H](CC(C)C)NC(=O)[C@@H](CCCNC(=N)N)NC(=O)[C@@H](CCCCN)NC(=O)[C@@H](CCCNC(=N)N)NC(=O)[C@H](NC(=O)[C@@H](CCCCN)NC(=O)[C@@H](CCCCN)NC(=O)[C@@H](CCCNC(=N)N)NC(=O)[C@@H](CC(C)C)NC(=O)[C@@H](CCCNC(=N)N)NC(=O)[C@@H](CCCNC(=N)N)NC(=O)[C@@H](Cc1ccccc1)NC(=O)[C@@H](CCCNC(=N)N)NC(=O)CNC(=O)[C@H](N)C(C)C)[C@H](C)O)[C@H](C)CC)C(C)C)[C@H](C)CC)C(=O)N[C@@H](C(=O)NCC(=O)N[C@H](CO)C(=O)N[C@@H](C(=O)N1CCC[C@@H]1C(=O)N[C@H](CC(C)C)C(=O)NCC(=O)N[C@H](CO)C(=O)NCC(=O)O)[C@H](C)CC)C(C)C` [D-Yongshi] (H-[dV]G[dR][dF][dR][dR][dL][dR][dK][dK][dT][dR][dK][dR][dL][dK][dK][dI]G[dK][dV][dL][dK][dW][dI][dP][dP][dI][dV]G[dS][dI][dP][dL]G[dS]G-OH; N-terminus and C-terminus assumed), the Kd at SARS-CoV-1 HR1 and on SARS-CoV-2 HR1 was greater than 100 µM in each case. Besides, the “cytotoxicity compared with parent or control peptide (in words)” value in the data set on Vero hACE2 cells is given as “greatly increased cytotoxicity”. Also, the “SARS-CoV-2 inhibition by D-enantiomer (in words)” value in [2] is listed as “only observed at concentrations that also induced substantial cell death”.

The record behind these values is PMC10480232 (Scientific Reports, 2023).
